# From ChEMBL document CHEMBL1142524, “Virtual screening to successfully identify novel janus kinase 3 inhibitors: a sequential focused screening approach” (J Med Chem, 2008)
# pIC50: −log10 of the molar value.
# Target: T1, Tyrosine-protein kinase JAK3 (Homo sapiens, UniProt P52333)
# T1 sequence (P52333 whole entry): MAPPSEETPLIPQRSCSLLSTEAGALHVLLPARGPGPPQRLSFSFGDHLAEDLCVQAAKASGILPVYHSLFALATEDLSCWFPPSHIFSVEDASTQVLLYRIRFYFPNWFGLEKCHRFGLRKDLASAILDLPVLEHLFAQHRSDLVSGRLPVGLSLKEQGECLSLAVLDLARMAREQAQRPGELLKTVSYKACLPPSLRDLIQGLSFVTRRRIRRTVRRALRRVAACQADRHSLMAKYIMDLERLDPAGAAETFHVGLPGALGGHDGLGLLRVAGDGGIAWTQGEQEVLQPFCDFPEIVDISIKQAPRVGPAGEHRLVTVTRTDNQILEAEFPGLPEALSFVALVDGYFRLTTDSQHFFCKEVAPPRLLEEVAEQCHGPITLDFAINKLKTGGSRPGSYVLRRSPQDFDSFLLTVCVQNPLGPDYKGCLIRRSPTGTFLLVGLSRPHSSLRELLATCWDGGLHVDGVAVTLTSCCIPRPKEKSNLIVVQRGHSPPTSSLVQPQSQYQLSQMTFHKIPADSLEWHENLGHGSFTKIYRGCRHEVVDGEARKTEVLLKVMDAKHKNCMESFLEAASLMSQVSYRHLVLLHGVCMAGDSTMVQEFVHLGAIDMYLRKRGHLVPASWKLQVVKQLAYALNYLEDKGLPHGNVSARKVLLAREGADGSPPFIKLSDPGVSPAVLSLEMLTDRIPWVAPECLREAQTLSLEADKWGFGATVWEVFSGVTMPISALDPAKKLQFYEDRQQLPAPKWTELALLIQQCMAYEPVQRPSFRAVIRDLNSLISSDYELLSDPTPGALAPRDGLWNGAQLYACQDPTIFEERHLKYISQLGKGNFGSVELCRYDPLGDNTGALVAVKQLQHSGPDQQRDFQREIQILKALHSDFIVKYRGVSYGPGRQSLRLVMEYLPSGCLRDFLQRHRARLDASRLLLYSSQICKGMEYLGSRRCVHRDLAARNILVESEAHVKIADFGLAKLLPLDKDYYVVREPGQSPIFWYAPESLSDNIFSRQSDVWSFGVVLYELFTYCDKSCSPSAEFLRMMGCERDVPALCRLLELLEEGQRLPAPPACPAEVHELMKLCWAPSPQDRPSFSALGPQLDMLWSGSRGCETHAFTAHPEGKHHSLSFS
# Experiment: Inhibition of JAK3
row,pIC50,Structure (SMILES)
1,7.01,CN1CCN(c2ccc(Nc3ncc4[nH]nc(-c5ccccc5)c4n3)cc2)CC1
2,5.58,Cc1cc(C(=O)Nc2ccc3[nH]ncc3c2)nn1-c1cccc(C(F)(F)F)c1
3,6.02,Oc1c2ccccc2c2c3c(cccc13)N=N2 [SP-600125]
